Assay results taken from patent US7576105B2, “Benzyl substituted (piperidin-4-yl)aminobenzamido derivatives” (priority 2002, dated 2009).

What was measured:
[1] = system: acetylcholine bromide-induced abdominal constriction; conditions: mouse, in vivo
μ-opioid receptor = molecular target: T1, μ-opioid receptor (Rattus norvegicus, UniProt P33535); experiment: Rat brain μ-opioid receptor binding assay; conditions: rat forebrain particulate preparation, [3H]DAMGO, 25° C.
T1 construct: from tissue; host or cells: rat forebrain homogenate (Wistar rat)

δ-opioid receptor = molecular target: T2, δ-opioid receptor (Rattus norvegicus, UniProt P33533); experiment: Rat brain δ-opioid receptor binding assay; conditions: rat forebrain particulate preparation, [3H]DPDPE, 25° C.
T2 construct: from tissue; host or cells: rat forebrain homogenate (Wistar rat)
T2 sequence (P33533 whole entry): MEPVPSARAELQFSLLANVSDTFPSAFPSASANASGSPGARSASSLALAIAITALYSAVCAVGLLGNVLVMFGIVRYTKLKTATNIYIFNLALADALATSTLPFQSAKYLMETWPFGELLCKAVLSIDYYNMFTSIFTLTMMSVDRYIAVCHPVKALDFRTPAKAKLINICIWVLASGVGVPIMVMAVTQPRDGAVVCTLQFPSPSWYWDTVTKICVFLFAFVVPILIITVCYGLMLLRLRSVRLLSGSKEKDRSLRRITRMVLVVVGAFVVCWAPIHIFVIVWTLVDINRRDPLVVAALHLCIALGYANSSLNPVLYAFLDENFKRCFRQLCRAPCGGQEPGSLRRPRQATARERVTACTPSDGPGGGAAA

T1 sequence (P33535 whole entry): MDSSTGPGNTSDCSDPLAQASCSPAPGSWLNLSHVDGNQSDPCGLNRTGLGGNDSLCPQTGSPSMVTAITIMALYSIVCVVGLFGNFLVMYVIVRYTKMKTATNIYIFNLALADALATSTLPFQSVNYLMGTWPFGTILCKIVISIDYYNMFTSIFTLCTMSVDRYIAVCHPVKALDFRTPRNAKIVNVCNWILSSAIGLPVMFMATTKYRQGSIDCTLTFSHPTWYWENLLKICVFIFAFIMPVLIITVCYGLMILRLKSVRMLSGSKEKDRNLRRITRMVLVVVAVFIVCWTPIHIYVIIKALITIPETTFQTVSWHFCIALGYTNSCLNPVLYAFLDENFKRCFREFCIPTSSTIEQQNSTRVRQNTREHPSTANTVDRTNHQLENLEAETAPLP

CCCN1CCC(N(Cc2ccccc2)c2ccc(C(=O)N(CC)CC)cc2)CC1 [Compound 7, N,N-Diethyl-4-[benzyl(1-propylpiperidin-4-yl)amino]benzamide]
MAIT % Inhibition @150 μmol/kg [1]: 100%

CCCN1CCC(N(Cc2ccccc2O)c2ccc(C(=O)N(CC)CC)cc2)CC1 [Compound 5, N,N-Diethyl-4-[2-hydroxybenzyl(1-propylpiperidin-4-yl)amino]benzamide]
Ki (μ-opioid receptor): ≥ 10 µM
Ki (δ-opioid receptor): 3.47 µM

CCCN1CCC(N(Cc2cccc(O)c2)c2ccc(C(=O)N(CC)CC)cc2)CC1 [Compound 2, N,N-Diethyl-4-[3-hydroxybenzyl(1-propylpiperidin-4-yl)amino]benzamide]
MAIT % Inhibition @150 μmol/kg [1]: 13.3%

CCN(CC)C(=O)c1ccc(N(Cc2ccccc2)C2CCN(C(C)C)CC2)cc1 [Compound 10, N,N-Diethyl-4-[benzyl(1-isopropylpiperidin-4-yl)amino]benzamide]
Ki (μ-opioid receptor): 3.79 µM
Ki (δ-opioid receptor): 0.585 µM

C=CCN1CCC(N(Cc2ccccc2)c2ccc(C(=O)N(CC)CC)cc2)CC1 [Compound 9, N,N-Diethyl-4-[benzyl(1-allylpiperidin-4-yl)amino]benzamide]
MAIT % Inhibition @150 μmol/kg [1]: 84.6%

CCN(CC)C(=O)c1ccc(N(Cc2ccccc2)C2CCN(CCCN(C)C)CC2)cc1 [Compound 11, N,N-Diethyl-4-[benzyl(1-[3-dimethylaminopropyl]piperidin-4-yl)amino]benzamide]
Ki (μ-opioid receptor): ≥ 10 µM
Ki (δ-opioid receptor): 1.77 µM

CCN(CC)C(=O)c1ccc(N(Cc2ccccc2)C2CCNCC2)cc1 [Compound 8, N,N-Diethyl-4-[benzyl(piperidin-4-yl)amino]benzamide]
MAIT % Inhibition @150 μmol/kg [1]: 33.3%

CCCN1CCC(N(Cc2cccc(OC)c2)c2ccc(C(=O)N(CC)CC)cc2)CC1 [Compound 1, N,N-diethyl-4-[3-methoxybenzyl(1-propylpiperidin-4-yl)amino]benzamide]
Ki (μ-opioid receptor): 9.28 µM
Ki (δ-opioid receptor): 0.24 µM
